Reference: patent US10450593B2, “Type II fatty acid synthesis enzymes in reverse β-oxidation” (William Marsh Rice University, priority 2014, dated 2019)
Read-outs that look alike come from different tables or passages of the source.

Legend:
[1] = biological target: T1, FabI (Escherichia coli, UniProt P0AEK4); experiment: Inhibition of FabI crotonyl-CoA reduction activity by CoA thioesters; type: biochemical, E. coli; conditions: for inhibitory effect on FabI activity: CoA thioester at 20 or 200 μM
T1 sequence (P0AEK4 1-262): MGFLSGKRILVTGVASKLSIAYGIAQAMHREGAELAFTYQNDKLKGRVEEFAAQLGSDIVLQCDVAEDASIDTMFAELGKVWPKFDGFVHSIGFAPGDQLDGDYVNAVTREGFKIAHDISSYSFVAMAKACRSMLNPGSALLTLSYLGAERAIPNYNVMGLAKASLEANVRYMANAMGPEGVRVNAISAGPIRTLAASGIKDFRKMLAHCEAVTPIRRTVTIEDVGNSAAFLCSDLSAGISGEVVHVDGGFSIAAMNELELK
From the text: FIG. 3. Characterization of crotonyl-CoA reduction to butyryl-CoA by FabI. FIG. 3A. Mass spectrum analysis of FabI reduction of crotonyl-CoA to butyryl-CoA. (i) Controls of crotonyl-CoA (836.3 m/z—gray) and butyryl-CoA (838.3 m/z—black). (ii) Reaction mixture without FabI. (iii) Reaction mixture with FabI. FIG. 3B. pH activity profile of FabI with crotonyl-CoA and NADH relative to pH 7.5 (1.0). FIG. 3C. Inhibition profile of crotonyl-CoA reduction activity for FabI with the indicated CoA thioesters at either 20 or 200 μM relative to activity in absence of inhibitor (100%).
(§1) For measurement of enzymatic activities from fermentation samples, cells were disrupted as previously reported (Dellomonaco, Clomburg, Miller, & Gonzalez, 2011). The HIS Tagged FabI protein was expressed from pCA24N-FabI from the ASKA collection (Kitagawa et al., 2005) in BL21(DE3) cells (NEW ENGLAND BIOLABS™) induced at OD600≈0.4 with 0.1 mM IPTG and shaken O/N at Room Temperature. FabI protein was harvested and purified as previously reported using Talon Metal Affinity Resin (CLONTECH LABORATORIES™) (Clomburg et al., 2012).
(§2) Thiolase activity (Wiesenborn, Rudolph, & Papoutsakis, 1988) and β-hydroxybutyryl-CoA dehydrogenase activity (Bond-Watts, Bellerose, & Chang, 2011a) were monitored accordingly as previously described (Clomburg et al., 2012). Trans-enoyl-CoA reductase activity for egTER, FabI, bsFabL, efFabK and vcFabV were monitored by loss of NADH (Bond-Watts et al., 2011a; Clomburg et al., 2012). Acyl-CoA dehydrogenase activity was monitored by measuring the reduction of Methyl-Thiazolyl Blue (MTT) coupled to the oxidation of butyryl-CoA (O'Brien & Frerman, 1977) in cellular extracts disrupted as above with the addition of 5 μM flavin adenine dinucleotide (FAD).
To understand the potential of utilizing FabI for BOX-R, we examined the effect of key CoA thioester intermediates of the BOX-R as well as a broad range of acyl-CoAs on FabI activity […].

[2] = biological target: T1, FabI; conditions: substrate of FabI, Bergler 1994; cited from earlier work
[3] = biological target: T1, FabI
[4] = substrate: C/C=C/C(=O)SCCNC(=O)CCNC(=O)[C@H](O)C(C)(C)COP(=O)(O)OP(=O)(O)OC[C@H]1O[C@@H](n2cnc3c(N)ncnc32)[C@H](O)[C@@H]1OP(=O)(O)O; experiment: Kinetic parameters of purified N-terminal His-tagged FabI with crotonyl-CoA and NADH; type: biochemical, E. coli; conditions: other: substrate of purified FabI, NADH
Protocol: as §1, §2
N-terminal His-tagged FabI was purified from an ASKA collection vector (Kitagawa et al., 2005) expressed in the strain BL21(DE3). […] This change in kcat increases the expected rate of crotonyl-CoA reduction by FabI to a value between 1.02×10^−7M s^−1 and 7.86×10^−11 M s^−1, which is in agreement with the rate observed in our cultures. To verify that FabI is utilizing NADH to convert crotonyl-CoA to butyryl-CoA, the reaction was monitored via HPLC-MS, which confirmed that FabI converts crotonyl-CoA almost completely to butyryl-CoA (FIG. 3a).

Question: With `CC(O)CC(=O)SCCNC(=O)CCNC(=O)[C@H](O)C(C)(C)COP(=O)(O)OP(=O)(O)OC[C@H]1O[C@@H](n2cnc3c(N)ncnc32)[C@H](O)[C@@H]1OP(=O)(O)O` (stereo partly shown) [3-hydroxy-butyryl-CoA] as the molecule, how does the “inhibitory effect on FabI activity” value [1] read?
Answer: Its value is “minimal inhibitory effects”.

Question: For `CC(=O)CC(=O)SCCNC(=O)CCNC(=O)[C@H](O)C(C)(C)COP(=O)(O)OP(=O)(O)OC[C@H]1O[C@@H](n2cnc3c(N)ncnc32)[C@H](O)[C@@H]1OP(=O)(O)O` [acetoacetyl-CoA], which “inhibitory effect on FabI activity” value [1] is on record?
Answer: The value was “minimal inhibitory effects”.

Question: Which reported kcat [2] does the source give for `C/C=C/C(=O)SCCNC(=O)CCNC(=O)[C@H](O)C(C)(C)COP(=O)(O)OP(=O)(O)OC[C@H]1O[C@@H](n2cnc3c(N)ncnc32)[C@H](O)[C@@H]1OP(=O)(O)O` [crotonyl-CoA] here?
Answer: Its reported kcat is 0.23 s⁻¹.

Question: Which Ki ([3]; literature, Helmut Bergler 1996; read-out: Ki towards FabI; cited from earlier work) does the source give for `CCCCCCCCCC(=O)SCCNC(=O)CCNC(=O)C(O)C(C)(C)COP(=O)(O)OP(=O)(O)OC[C@H]1O[C@@H](n2cnc3c(N)ncnc32)[C@H](O)[C@@H]1OP(=O)(O)O` (stereo partly shown) [decaonyl-CoA] here?
Answer: The Ki was about 900 µM.

Question: For `CCCCCCCCCCCCCC(=O)SCCNC(=O)CCNC(=O)[C@H](O)C(C)(C)COP(=O)(O)OP(=O)(O)OC[C@H]1O[C@@H](n2cnc3c(N)ncnc32)[C@H](O)[C@@H]1OP(=O)(O)O` [myristoyl-CoA], which “percent inhibition of FabI crotonyl-CoA reduction activity” value ([1]; CoA thioester at 200 μM) is on record?
Answer: The value was “highest percent inhibition”.

Question: With `CCCCCCCCCCCCCCCC(=O)SCCNC(=O)CCNC(=O)[C@H](O)C(C)(C)COP(=O)(O)OP(=O)(O)OC[C@H]1O[C@@H](n2cnc3c(N)ncnc32)[C@H](O)[C@@H]1OP(=O)(O)O` [palmitoyl-CoA] as the molecule, how does the inhibition at 20 µM ([1]; read-out: inhibition of FabI crotonyl-CoA reduction activity) read?
Answer: The inhibition at 20 µM was about 50%.

Question: What about the Ki ([3]; read-out: Ki towards FabI; literature, Helmut Bergler 1996; cited from earlier work) of the same molecule?
Answer: The Ki was 20 µM.

B1: FabI (Escherichia coli K-12) (protein)
chain: MGFLSGKRILVTGVASKLSIAYGIAQAMHREGAELAFTYQNDKLKGRVEEFAAQLGSDIVLQCDVAEDASIDTMFAELGKVWPKFDGFVHSIGFAPGDQLDGDYVNAVTREGFKIAHDISSYSFVAMAKACRSMLNPGSALLTLSYLGAERAIPNYNVMGLAKASLEANVRYMANAMGPEGVRVNAISAGPIRTLAASGIKDFRKMLAHCEAVTPIRRTVTIEDVGNSAAFLCSDLSAGISGEVVHVDGGFSIAAMNELELK
Question: Which Km [4] does the source give for B1 here?
Answer: Its Km is 4.6 ± 0.6 mM.

Question: And the kcat [4]?
Answer: Its kcat is 5.3 ± 0.6 s⁻¹.

Question: What about the kcat/Km [4] of the same molecule?
Answer: The kcat/Km was 1150 M⁻¹ s⁻¹.
